Here are results for twelve compounds from ChEMBL document CHEMBL6096705, “Identification of a Chemical Probe for BLT2 Activation by Scaffold Hopping” (J Med Chem, 2025).

Data set [1] has as its target T1, Leukotriene B4 receptor 2 (Homo sapiens, UniProt Q9NPC1).
T1 sequence (Q9NPC1 whole entry): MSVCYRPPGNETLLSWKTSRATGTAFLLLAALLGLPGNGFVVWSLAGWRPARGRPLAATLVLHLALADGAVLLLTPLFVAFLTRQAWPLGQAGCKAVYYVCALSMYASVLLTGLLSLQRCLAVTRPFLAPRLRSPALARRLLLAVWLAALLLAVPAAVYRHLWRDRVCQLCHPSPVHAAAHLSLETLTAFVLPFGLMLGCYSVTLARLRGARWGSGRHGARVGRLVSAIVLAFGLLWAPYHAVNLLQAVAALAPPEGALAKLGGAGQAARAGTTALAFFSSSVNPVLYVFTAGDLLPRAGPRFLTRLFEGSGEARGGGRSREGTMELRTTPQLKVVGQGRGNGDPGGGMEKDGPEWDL
In words: Agonist activity at BLT2 (unknown origin). Type of data set: functional.

Data set [2] addresses T1, Leukotriene B4 receptor 2. Description: Agonist activity at human BLT2 expressed in CHO-K1 cells overexpressing GNAi2 assessed as inhibition of forskolin-induced cAMP accumulation preincubated for 40 mins followed by forskolin addition and measured after 20 mins by HTRF assay. Type of data set: functional, cell-based.
The target of data set [3] is T1, Leukotriene B4 receptor 2. In words: Displacement of FITC-labeled tracer from Lumi4 Tb-labeled BLT2 (unknown origin) expressed in CHO-K1 cells incubated for 1 hrs by Tag-lite displacement based HTRF assay. Type of data set: cell-based.
In the next data set the test system is HepG2. Description: Cytotoxicity against human HepG2 cells assessed as effect on cell viability at 100 uM measured after 72 hrs by CellTiter-Glo assay. Conditions: hepg2, 72 h. Type of data set: toxicity, cell-based.
The nature of data set [4]: Aqueous solubility of compound in PBS buffer at pH 7.4 by precipitation based plate reader analysis. It is filed as physicochemical.
A short description of data set [5]: Metabolic stability in Sprague-Dawley rat liver microsomes assessed as parent compound remaining measured upto 60 mins in presence of NADPH by HPLC analysis. Type of data set: ADME, Microsome. As to conditions: read-out: Stability.
Data set [6] concerns the target T2, Type-1 angiotensin II receptor (Homo sapiens, UniProt P30556).
T2 sequence (P30556 whole entry): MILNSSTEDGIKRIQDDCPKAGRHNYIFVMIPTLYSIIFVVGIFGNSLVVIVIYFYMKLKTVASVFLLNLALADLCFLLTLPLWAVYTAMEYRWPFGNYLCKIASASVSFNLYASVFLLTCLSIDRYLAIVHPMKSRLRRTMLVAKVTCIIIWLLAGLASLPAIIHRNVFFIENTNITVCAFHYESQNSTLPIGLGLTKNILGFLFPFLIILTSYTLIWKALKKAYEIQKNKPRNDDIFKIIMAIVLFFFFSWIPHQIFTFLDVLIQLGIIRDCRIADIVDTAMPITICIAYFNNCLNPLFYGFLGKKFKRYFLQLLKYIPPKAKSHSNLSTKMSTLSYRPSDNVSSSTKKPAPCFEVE
Description: Antagonist activity at human AT1 receptor expressed in CHO-K1 cells co-expressing GNA14 assessed as inhibition of Val5-Angiotensin-II induced IP-1 accumulation incubated for 90 mins by HTRF assay

The next data set deals with HEK-293T. Description: Cytotoxicity against HEK293T cells assessed as effect on cell viability at 10 uM measured after 24 hrs by CellTiter-Glo assay. It is filed as toxicity, cell-based. As to conditions: human.
Data set [7] in a line: Cytotoxicity against human MRC9 cells assessed as effect on cell viability at 10 uM measured after 24 hrs by CellTiter-Glo assay. It is filed as toxicity, cell-based. As to conditions: mrc9, 24 h.
The next data set relates to U2OS. Description: Cytotoxicity against human U2OS cells assessed as effect on cell viability at 10 uM measured after 24 hrs by CellTiter-Glo assay. Type of data set: toxicity, cell-based.
A short description of data set [8]: Cmax in male C57BL/6J mouse at 3 mg/kg, iv by LC-MS analysis. It is filed as ADME, organism-based. As to conditions: in vivo.
Data set [9] can be described thus: Cmax in male C57BL/6J mouse at 10 mg/kg, po by LC-MS analysis. As to conditions: in vivo. Type of data set: ADME, organism-based.
A short description of data set [10]: Tmax in male C57BL/6J mouse at 10 mg/kg, po by LC-MS analysis. It is filed as ADME, organism-based. Conditions: in vivo.
Data set [11] in a line: Half-life in male C57BL/6J mouse at 10 mg/kg, SC by LC-MS analysis. Type of data set: ADME, organism-based. Conditions: in vivo.
Data set [12] can be described thus: Half-life in male C57BL/6J mouse at 3 mg/kg, iv by LC-MS analysis. Type of data set: ADME, organism-based. Conditions: in vivo.
The nature of data set [13]: Half-life in male C57BL/6J mouse at 10 mg/kg, po by LC-MS analysis. Conditions: in vivo. Type of data set: ADME, organism-based.
Data set [14] is described as follows: AUC (0 to infinity) in male C57BL/6J mouse at 10 mg/kg, SC by LC-MS analysis. As to conditions: in vivo. It is filed as ADME, organism-based.
Data set [15] in a line: AUC (0 to infinity) in male C57BL/6J mouse at 3 mg/kg, iv by LC-MS analysis. Conditions: in vivo. Type of data set: ADME, organism-based.
The nature of data set [16]: AUC (0 to infinity) in male C57BL/6J mouse at 10 mg/kg, po by LC-MS analysis. It is filed as ADME, organism-based. Conditions: in vivo.
A short description of data set [17]: Oral bioavailability in male C57BL/6J mouse at 10 mg/kg by LC-MS analysis. It is filed as ADME, organism-based. Conditions: in vivo.
A short description of data set [18]: Toxicity in male C57BL/6J mouse assessed as effect on normal behavior at 10 mg/kg, SC. It is filed as organism-based. As to conditions: in vivo.
Data set [19] in a line: Toxicity in male C57BL/6J mouse assessed as effect on normal behavior at 3 mg/kg, iv. Type of data set: organism-based. Conditions: in vivo.
Data set [20] can be described thus: Toxicity in male C57BL/6J mouse assessed as effect on normal behavior at 10 mg/kg, po. Type of data set: organism-based. As to conditions: in vivo.
The target in data set [21] is T1, Leukotriene B4 receptor 2. Description: Agonist activity at human BLT2 expressed in CHO-K1 cells overexpressing GNA14 assessed as induction of IP-1 accumulation incubated for 90 mins by HTRF assay. Type of data set: functional, cell-based.
Data set [22] in a line: Binding affinity to BLT1 (unknown origin). More on the design: species or system Homo sapiens.

Converted amounts (≈) assume the structure as drawn. A value given as a limit tells only on which side of the number the result lay.

Consider `CCCCC[C@H](O)/C=C/C=C/C/C=C\CCCC(=O)O`, for which, in [1], the pEC50 stood at 7.72. For the same compound, the half-maximal effective concentration (EC50) in [2] is 0.0014 µM.
As for `CCCCC(=O)N(Cc1ccc(-c2ccccc2C(=O)O)cc1)c1ccccc1`, the IC50 in data set [3] was 0.063 µM; in data set [6], 53 µM. The Activity entry in the data set on HepG2 is listed as “Non-toxic”. In data set [4], the solubility (kinetic) was determined as 250 µM (≈ 96.9 µg/mL). In addition, the remaining at 1 h in data set [5] was determined as 66%.
For the compound `CCCCC(=O)N1CC2(C1)CN(c1ccccc1-c1nnn[nH]1)C2`, the Activity entry (in the data set with HepG2; with HEK-293T; in [7]; in the data set on U2OS; in data set [18]; in data set [19]) was “Non-toxic” in each case. Further, the Activity entry in data set [20] is listed as “Non-toxic”. Moreover, the kinetic solubility in data set [4] is no less than 1000 µM. Also, the remaining at 1 h in data set [5] came out at 97.5%. For the same compound, the Cmax came to 3290 ng/mL in data set [8] and 1990 ng/mL in data set [9]. Besides, the Tmax in data set [10] was 15 min. The half-life in data set [11] was 62 min; in [12], 19 min; in [13] it was 154 min. Moreover, the AUC(0-inf) was 4080 ng·h/mL in [14], 1020 ng·h/mL in data set [15] and 1730 ng·h/mL in data set [16]. The compound also registered a bioavailability in data set [17] of 51%.
Turning to `CCCCC(=O)N1Cc2cc(-c3ccccc3-c3nnn[nH]3)ccc2C1C` (stereo unspecified), the EC50 in [21] was 1.39 µM.
`CCCCC1(C)C(=O)N(Cc2ccc(-c3ccccc3C(=O)O)cc2)c2ccccc21` (stereo unspecified): in data set [6], the midpoint of inhibition, the IC50, lay at 58 µM. This lies in the double-digit micromolar range.
With `CCc1nnc(N2Cc3ccc(-c4ccccc4-c4nnn[nH]4)cc3C2)o1`, the solubility (kinetic) in data set [4] stood at 750 µM (≈ 270 µg/mL). In data set [5], the remaining at 1 h worked out at 101%. In [6], this compound displayed an IC50 of 15.8 µM.
The compound `CCCCC(=O)N1Cc2ccc(-c3ccccc3-c3nnn[nH]3)cc2C1` showed an IC50 in data set [6] greater than 400 µM.
In the case of `CCc1cnc(N2Cc3ccc(-c4ccccc4-c4nnn[nH]4)cc3C2)s1`, the kinetic solubility in [4] was 250 µM (≈ 93.6 µg/mL). Besides, the remaining at 1 h in [5] is 89%. In data set [6], this compound returned an IC50 of 79 µM.
The compound `CCCCC(=O)N1CCC2(CC1)CCN(c1ccccc1-c1nnn[nH]1)C2` gave a kinetic solubility in data set [4] of no less than 1000 µM. The remaining at 1 h in [5] is 99.8%. Moreover, half-maximal inhibition in data set [6] (IC50) was put at 13.6 µM.
For `CCCCC(=O)N1CCc2ccc(-c3ccccc3C(=O)O)cc2C1`, the EC50 in [21] worked out at 18.4 µM.
`CCCCC1=NC2(CCCC2)C(=O)N1Cc1ccc(-c2ccccc2-c2nnn[nH]2)cc1` [IRBESARTAN]: the IC50 in data set [3] is no less than 1.5 µM.
In data set [22], `CCCCC/C=C\C[C@@H](O)/C=C/C=C/C=C\[C@@H](O)CCCC(=O)O` [LEUKOTRIENE_B4] displayed a pKd of 8.5.
